The conditions of the series: human, in vivo. The source says:
a. […] Laboratory results were then reviewed for these particular patients to determine which patients actually had clinically important changes in a given laboratory parameter.

Molecules are shown by their SMILES.

On to `CN(C)C(=N)N=C(N)N` [metformin], for which the “patients with adverse events” value is on record as 10%.

For the compound `N[C@@H](CC(=O)N1CCn2c(nnc2C(F)(F)F)C1)Cc1cc(F)c(F)cc1F` [sitagliptin], the “clinically important decreases in any hematological parameter directly attributable to the drug” value is “No patient experienced clinically important decreases”; the “patients with adverse events” value is given as 8%; the “responsibility for clinically meaningful elevations in ALT and AST” value is listed as “not responsible for the variations”.

For the origin of these results see patent US8551524B2, “Anti-diabetic combinations” (priority 2007, dated 2013).
